# From patent publication US9765067B2, “Thiophen-2-yl-pyridin-2-yl-1H-pyrazole-4-carboxylic acid derivatives and the use thereof as soluble guanylate cyclase activators” (Novartis AG, priority 2014, dated 2017)
# Biological target: T1, soluble guanylate cyclase (human GUCYA3/GUCYB3) overexpressed in CHO cells (Homo sapiens, UniProt Q02108+Q02153)
# T1 construct: expressed in transfected cells
# T1 sequence (Q02108 1-690 partner): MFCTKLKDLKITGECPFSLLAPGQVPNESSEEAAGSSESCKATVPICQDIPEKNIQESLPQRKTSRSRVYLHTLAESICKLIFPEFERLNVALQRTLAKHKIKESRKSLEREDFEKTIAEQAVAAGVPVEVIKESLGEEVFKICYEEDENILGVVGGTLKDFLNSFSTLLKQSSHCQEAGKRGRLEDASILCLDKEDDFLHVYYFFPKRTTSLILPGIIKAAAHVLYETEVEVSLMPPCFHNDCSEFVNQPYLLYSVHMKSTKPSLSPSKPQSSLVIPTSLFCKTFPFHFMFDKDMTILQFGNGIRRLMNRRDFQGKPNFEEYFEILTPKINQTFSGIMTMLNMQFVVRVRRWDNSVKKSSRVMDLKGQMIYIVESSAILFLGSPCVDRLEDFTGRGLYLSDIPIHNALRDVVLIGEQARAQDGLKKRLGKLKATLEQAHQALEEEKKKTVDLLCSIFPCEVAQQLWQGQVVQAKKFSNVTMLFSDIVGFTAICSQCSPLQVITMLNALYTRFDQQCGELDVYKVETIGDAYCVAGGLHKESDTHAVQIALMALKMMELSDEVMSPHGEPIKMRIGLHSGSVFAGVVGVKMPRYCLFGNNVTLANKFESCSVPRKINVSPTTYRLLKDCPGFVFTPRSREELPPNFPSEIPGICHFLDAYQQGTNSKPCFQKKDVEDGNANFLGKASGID
# T1 sequence (Q02153 1-619): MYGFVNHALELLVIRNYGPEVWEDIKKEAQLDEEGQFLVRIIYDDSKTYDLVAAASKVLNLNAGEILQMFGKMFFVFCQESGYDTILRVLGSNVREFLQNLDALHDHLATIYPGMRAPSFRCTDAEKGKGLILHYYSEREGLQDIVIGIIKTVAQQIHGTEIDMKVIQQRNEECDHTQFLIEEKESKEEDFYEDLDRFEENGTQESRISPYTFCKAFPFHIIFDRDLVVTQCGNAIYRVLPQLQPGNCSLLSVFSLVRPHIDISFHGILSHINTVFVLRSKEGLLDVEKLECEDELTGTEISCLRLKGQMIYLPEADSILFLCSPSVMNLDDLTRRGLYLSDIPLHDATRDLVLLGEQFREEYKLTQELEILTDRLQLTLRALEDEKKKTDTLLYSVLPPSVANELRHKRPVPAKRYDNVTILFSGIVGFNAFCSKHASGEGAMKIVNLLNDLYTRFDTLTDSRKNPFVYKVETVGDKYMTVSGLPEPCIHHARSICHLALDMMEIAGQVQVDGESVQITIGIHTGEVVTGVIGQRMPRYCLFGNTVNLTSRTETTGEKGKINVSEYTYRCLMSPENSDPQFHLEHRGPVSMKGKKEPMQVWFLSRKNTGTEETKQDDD
# Experiment: CHO cellular assay (cGMP production, HTRF)
# Assay type: cell-based
# Conditions: CHO K1 clone 8E10 overexpressing human sGC, Cisbio HTRF, 1 h room temperature, 1 mM IBMX, 20 uM ODQ, minimum quantification limit 0.5 nM
# In short: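 Stable CHO K1 clone expressing human GUCYA3/GUCYB3. Compounds applied 1 h at room temperature in HBSS, 0.1% BSA, 1 mM IBMX, 20 uM ODQ, 0.5% DMSO. cGMP measured by HTRF and interpolated from a standard curve; EC50 from 4-parameter sigmoidal fit.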
row,EC50,SMILES
1,428 nM,"CCCc1cc(COc2ccc(C3CCN(CC(F)(F)F)CC3)cc2C)c(-c2cccc(-n3ncc(C(=O)O)c3C(F)(F)F)n2)s1 [Example 41, 1-(6-(3-((2-Methyl-4-(1-(2,2,2-trifluoroethyl)piperidin-4-yl)phenoxy)methyl)-5-propylthiophen-2-yl)pyridin-2-yl)-5-(trifluoromethyl)-1H-pyrazole-4-carboxylic acid]"
2,887 nM,"Cc1cc(C2CCN(C(=O)C3CNC3)CC2)ccc1OCc1ccsc1-c1cccc(-n2ncc(C(=O)O)c2C(F)(F)F)n1 [Example 43, 1-(6-(3-((4-(1-(Azetidine-3-carbonyl)piperidin-4-yl)-2-methylphenoxy)methyl)thiophen-2-yl)pyridin-2-yl)-5-(trifluoromethyl)-1H-pyrazole-4-carboxylic acid]"
3,≤ 0.5 nM,"CCc1c(C(=O)O)cnn1-c1cccc(-c2sc(C)cc2CCc2ccc(C3CCN(C(=O)C4CC4)CC3)cc2C)n1 [Example 45, 1-(6-(3-(4-(1-(Cyclopropanecarbonyl)piperidin-4-yl)-2-methylphenethyl)-5-methylthiophen-2-yl)pyridin-2-yl)-5-ethyl-1H-pyrazole-4-carboxylic acid]"

row,SMILES,EC50
1,"Cc1cc(CCc2ccc(C3CCN(C(=O)OC(C)(C)C)CC3)cc2C)c(-c2cccc(-n3ncc(C(=O)O)c3C(F)(F)F)n2)s1 [Example 46, 1-(6-(3-(4-(1-(tert-Butoxycarbonyl)piperidin-4-yl)-2-methylphenethyl)-5-methylthiophen-2-yl)pyridin-2-yl)-5-(trifluoromethyl)-1H-pyrazole-4-carboxylic acid]",3 nM
